Experimental data published in patent US20240350458A1, “14-3-3 PROTEIN MODULATORS AS ANTITUMOR AGENTS” (priority 2021, published 2024).
Like-named read-outs stand apart in the source and are kept apart here.

Assays:
[1] = system: eight B-cell lymphoma cell lines; test: MTT proliferation assay, panel of eight B-cell lymphoma cell lines; format: cell-based; conditions: for IC50: B-cell, read-out: IC50 in all eight lymphoma cell lines; for activity in lymphoma cell lines: eight lymphoma cell lines
Description: (§1) All the above compounds were tested in vitro for their anticancer activity against a panel of eight B-cell lymphoma cell lines by MTT proliferation assay. The tested cell lines belonging to mantle cell lymphoma (MCL: REC1, Z138), activated B-cell diffuse large B-cell lymphoma (ABC-DLBCL: R11, HBL1, U2932, TMD8), germinal center B-cell diffuse large B-cell lymphoma (GCB-DLBCL: SU-DHL-10, FARAGE) subtypes. In overall, MCL cell lines present Cyclin D1 overexpression, while ABC- and GCB-DLBCL's proliferation is BCR and BCL6/HDACs driven, respectively. At the RNA level, all tested lymphoma cell lines were characterized by an overexpression of 14-3-3 zeta as reported for B-cell lymphomas resistant to chemotherapeutic regimen.

[2] = system: four human ATC cell lines; test: Cellular screening in four human ATC cell lines; format: cell-based
Nthory = test: MTT assay, ATC cell line, fixed concentrations; format: cell-based; conditions: Homo sapiens, 48 h, read-out: % of proliferating cells; for viability at 0.02 µM: 20 nM; for viability at 0.1 µM: 100 nM; for viability at 20 µM: 20000 nM
Description: (§2) The compounds FC91, SB14, SB17, SB18, SB19, SB20, SB21 and FC85 were employed in a cellular screening at fixed concentration ranging from 20 nM to 20 μM.
(§3) Table 2: Four human thyroid cancer cell lines were incubated with FC91, SB14, SB17, SB18, SB19, SB20A, SB20b, SB21 and FC85 for 48 h at fixed concentration of 20,100 and 20000 nM and then assayed with MTT. Data are reported as % of proliferating cells.

SW1736 = test: MTT assay, ATC cell line, fixed concentrations; format: cell-based; conditions: Homo sapiens, SW-1736, 48 h, read-out: % of proliferating cells; for viability at 0.02 µM: SW1736, 20 nM; for viability at 0.1 µM: SW1736, 100 nM; for viability at 20 µM: SW1736, 20000 nM
Description: as §2, §3

8505c = test: MTT assay, ATC cell line, fixed concentrations; format: cell-based; conditions: Homo sapiens, 48 h, read-out: % of proliferating cells; for viability at 0.02 µM: 20 nM; for viability at 0.1 µM: 100 nM; for viability at 20 µM: 20000 nM
Description: as §2, §3

FRO = test: MTT assay, ATC cell line, fixed concentrations; format: cell-based; conditions: Homo sapiens, 48 h, read-out: % of proliferating cells; for viability at 0.02 µM: 20 nM; for viability at 0.1 µM: 100 nM; for viability at 20 µM: 20000 nM
Description: as §2, §3

RI1 = test: MTT proliferation assay, B-cell lymphoma cell line; format: cell-based; conditions: Ri-1; RI1, 72 h of drug incubation
Description: as §1

U2932 = test: MTT proliferation assay, B-cell lymphoma cell line; format: cell-based; conditions: Homo sapiens; U2932, 72 h of drug incubation
Description: as §1

Z138 = test: MTT proliferation assay, B-cell lymphoma cell line; format: cell-based; conditions: Homo sapiens, Z-138; Z138, 72 h of drug incubation
Description: as §1

REC1 = test: MTT proliferation assay, B-cell lymphoma cell line; format: cell-based; conditions: Homo sapiens; REC1, 72 h of drug incubation
Description: as §1

HBL1 = test: MTT proliferation assay, B-cell lymphoma cell line; format: cell-based; conditions: HBL1, 72 h of drug incubation
Description: as §1

SUDHL10 = test: MTT proliferation assay, B-cell lymphoma cell line; format: cell-based; conditions: Homo sapiens, SU-DHL10; SUDHL10, 72 h of drug incubation
Description: as §1

FARAGE = test: MTT proliferation assay, B-cell lymphoma cell line; format: cell-based; conditions: 72 h of drug incubation
Description: as §1

TMD8 = test: MTT proliferation assay, B-cell lymphoma cell line; format: cell-based; conditions: Homo sapiens; TMD8, 72 h of drug incubation
Description: as §1

glioblastoma cell = conditions: combined with temozolomide; cited from earlier work
[3] = human ATC cell lines, read-out: IC50 values in ATC cell lines
[4] = Homo sapiens, in one (i.e. SB17) to four (i.e. SB20b) cell lines of anaplastic thyroid cancer, read-out: IC50 value in ATC cell lines

Row | SMILES | viability at 0.02 µM (Nthory) [%] | viability at 0.1 µM (Nthory) [%] | viability at 20 µM (Nthory) [%] | viability at 0.02 µM (SW1736) [%] | viability at 0.1 µM (SW1736) [%] | viability at 20 µM (SW1736) [%] | viability at 0.02 µM (8505c) [%] | viability at 0.1 µM (8505c) [%] | viability at 20 µM (8505c) [%] | viability at 0.02 µM (FRO) [%] | viability at 0.1 µM (FRO) [%] | viability at 20 µM (FRO) [%] | IC50 (RI1) [nM] | IC50 (U2932) [nM] | IC50 (Z138) [nM] | IC50 (REC1) [nM] | IC50 (HBL1) [nM] | IC50 (SUDHL10) [nM] | IC50 (FARAGE) [nM] | IC50 [2, 4] [nM] | also measured
1 | Cc1ccc(S(=O)(=O)Nc2ccc3c(c2)C(=Cc2nccn2C)C(=O)N3)cc1 (stereo in doubt) [FC91, N-{(3E)-3-[(1-methyl-1H-imidazol-2-yl)methylidene]-2-oxo-2,3-dihydro-1H-indol-5-yl}-4-methylbenzenesulfonamide] | 84 | 55 | 47 | 73 | 52 | 60 | 79 | 38 | 48 | 63 | 46 | 55 | 30 | 50 | 50 | 50 | 40 | 50 | 25 | – | IC50 [1]: < 1000 nM; IC50 in eight different lymphoma cell lines ([1]; eight different lymphoma cell lines): nanomolar range; IC50 [2, 3]: 100 to 200 nM; IC50 (TMD8): 50 nM
2 | Cc1ccc(S(=O)(=O)Nc2ccc3c(c2)/C(=C/c2cnc[nH]2)C(=O)N3)cc1 [FC85, N-[(3Z)-3-(1H-imidazol-5-ylmethylidene)-2-oxo-2,3-dihydro-1H-indol-5-yl]-4-methylbenzenesulfonamide] | 78 | 83 | 38 | 90 | 67 | 56 | 80 | 99 | 36 | 75 | 98 | 42 | 500 | 500 | 500 | 1000 | 600 | 600 | 500 | 100 to 20000 | IC50 [1]: < 1000 nM; inhibition of glioblastoma cell viability, combination vs single treatment (glioblastoma cell): significant increase in inhibition; IC50 (TMD8): 600 nM
3 | CS(=O)(=O)Nc1ccc2c(c1)/C(=C/c1cccs1)C(=O)N2 [FC96, reference compound] | – | – | – | – | – | – | – | – | – | – | – | – | 20000 | > 20000 | > 20000 | 15000 | > 20000 | > 20000 | > 20000 | – | activity in lymphoma cell lines [1]: almost inactive; IC50 (TMD8): > 20000 nM
4 | CS(=O)(=O)Nc1ccc2c(c1)/C(=C/c1cnc[nH]1)C(=O)N2 [FC100, reference compound] | – | – | – | – | – | – | – | – | – | – | – | – | 5500 | > 20000 | 8000 | 16000 | > 20000 | 19000 | > 20000 | – | activity in lymphoma cell lines [1]: almost inactive; IC50 (TMD8): > 20000 nM
5 | Cc1ccc(S(=O)(=O)Nc2ccc3c(c2)/C(=C/c2cnc(C)[nH]2)C(=O)N3)cc1 [SB14, (Z)-4-methyl-N-(3-((2-methyl-1H-imidazol-5-yl)methylene)-2-oxoindolin-5-yl)benzenesulfonamide] | 95 | 77 | 41 | 84 | 102 | 70 | 97 | 128 | 65 | 92 | 113 | 57 | – | – | – | – | – | – | – | 100 to 20000 | –
6 | Cc1ccc(S(=O)(=O)Nc2ccc3c(c2)/C(=C/c2ccn[nH]2)C(=O)N3)cc1 [SB17, (Z)—N-(3-((1H-pyrazol-5-yl)methylene)-2-oxoindolin-5-yl)-4-methylbenzenesulfonamide] | 89 | 73 | 48 | 81 | 99 | 63 | 90 | 119 | 59 | 80 | 113 | 55 | – | – | – | – | – | – | – | 100 to 20000 | –
7 | Cc1ccc(S(=O)(=O)Nc2ccc3c(c2)/C(=C/c2cn[nH]c2)C(=O)N3)cc1 [SB18, (E/Z)—N-(3-((1H-pyrazol-4-yl)methylene)-2-oxoindolin-5-yl)-4-methylbenzenesulfonamide] | 54 | 58 | 34 | 77 | 64 | 59 | 80 | 48 | 42 | 77 | 54 | 56 | – | – | – | – | – | – | – | 100 to 20000 | IC50 [2, 3]: 100 to 200 nM
8 | Cc1ccc(S(=O)(=O)Nc2ccc3c(c2)/C(=C/c2ncc[nH]2)C(=O)N3)cc1 [SB19, (Z)—N-(3-((1H-imidazol-2-yl)methylene)-2-oxoindolin-5-yl)-4-methylbenzenesulfonamide] | 81 | 61 | 43 | 80 | 85 | 59 | 74 | 74 | 37 | 78 | 74 | 51 | – | – | – | – | – | – | – | 100 to 20000 | IC50 [2, 3]: 100 to 200 nM
9 | Cc1ccc(S(=O)(=O)Nc2ccc3c(c2)C(=Cc2cccnc2N)C(=O)N3)cc1 [SB20, N-(3-((2-aminopyridin-3-yl)methylene)-2-oxoindolin-5-yl)-4-methylbenzenesulfonamide] | – | – | – | – | – | – | – | – | – | – | – | – | – | – | – | – | – | – | – | 100 to 20000 | –
10 | Cc1ccc(S(=O)(=O)Nc2ccc3c(c2)C(=Cc2cccnc2N)C(=O)N3)cc1 [SB20A, N-(3-((2-aminopyridin-3-yl)methylene)-2-oxoindolin-5-yl)-4-methylbenzenesulfonamide] | 99 | 77 | 63 | 82 | 89 | – | 78 | 99 | 35 | 85 | – | – | – | – | – | – | – | – | – | – | –
11 | Cc1ccc(S(=O)(=O)Nc2ccc3c(c2)C(=C2c4ccccc4-c4ccccc42)C(=O)N3)cc1 [SB21, N-(3-(9H-fluoren-9-ylidene)-2-oxoindolin-5-yl)-4-methylbenzenesulfonamide] | 91 | 94 | 15 | 108 | 103 | 64 | 82 | 134 | 37 | 93 | 114 | 60 | – | – | – | – | – | – | – | 100 to 20000 | –
